Data on one compound can be found in patent publication US20140128352A1, “COMPOUNDS AND METHODS FOR MODULATING MITOCHONDRIAL METABOLISM AND REACTIVE OXYGEN SPECIES PRODUCTION” (Buck Institute for Research on Aging, priority 2012, published 2014).

The target in assay [1] is T1, glycerol-3-phosphate dehydrogenase (GPDH) (Rattus norvegicus, UniProt P35571).
T1 construct: The activity of GPDH in intact mitochondria (0.3 mg/mL) was measured; from tissue; host or cells: rat skeletal muscle mitochondria (Wistar, Harlan Laboratories)
T1 sequence (P35571 43-727): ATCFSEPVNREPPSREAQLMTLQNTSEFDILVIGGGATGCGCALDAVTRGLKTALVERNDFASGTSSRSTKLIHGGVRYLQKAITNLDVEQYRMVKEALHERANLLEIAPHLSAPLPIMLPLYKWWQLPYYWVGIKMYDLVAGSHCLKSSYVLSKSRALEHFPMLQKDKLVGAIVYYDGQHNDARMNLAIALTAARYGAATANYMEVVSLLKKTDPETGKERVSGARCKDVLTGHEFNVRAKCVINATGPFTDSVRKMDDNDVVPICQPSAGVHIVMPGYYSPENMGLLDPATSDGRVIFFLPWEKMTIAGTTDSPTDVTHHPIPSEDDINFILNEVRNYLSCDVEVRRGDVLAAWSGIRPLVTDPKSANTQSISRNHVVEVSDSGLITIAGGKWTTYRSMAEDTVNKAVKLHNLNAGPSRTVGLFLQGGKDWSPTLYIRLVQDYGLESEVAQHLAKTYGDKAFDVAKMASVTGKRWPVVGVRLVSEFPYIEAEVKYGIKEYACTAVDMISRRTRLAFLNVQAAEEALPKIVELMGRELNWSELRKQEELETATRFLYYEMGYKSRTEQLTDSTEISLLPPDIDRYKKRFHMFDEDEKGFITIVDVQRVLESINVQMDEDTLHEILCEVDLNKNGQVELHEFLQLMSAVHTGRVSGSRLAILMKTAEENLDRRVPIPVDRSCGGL
Kind of assay: High-throughput screen: ROS production from glycerol-3-phosphate dehydrogenase (GPDH). The assay is classed as biochemical. Details: inhibition: dose or concentration left out as unconfirmed. The note with it: percent change in ROS from DMSO controls.
Method: (§1) Skeletal muscle mitochondria were isolated from 5-8 week old female Wistar rats (Harlan Laboratories). Minced muscle was homogenized in buffer containing bacterial protease Type VIII prior to differential centrifugation to separate mitochondria from other tissue components. Unless otherwise stated, freshly isolated muscle mitochondria were assayed in buffer containing 120 mM KCl, 5 mM HEPES, 1 mM EGTA, 0.3% (w/v) bovine serum albumin. Where indicated, CaCl2 was added to yield a final free concentration of 250 nM calcium at pH 7.0 at 37° C.
Compounds (10 mM in DMSO) were randomly selected from a library of 24,000 compounds obtained from ChemBridge and curated by the lab of Robert Hughes at the Buck Institute. Master screening plates were prepared using a Biomek FX liquid handling workstation (Beckman) to transfer 1 μL of each compound into individual wells on 96-well storage plates (80 compounds per plate). Master plates were sealed with foil and stored at −80° C. Just prior to use, plates were brought to room temperature and diluted 300-fold with standard buffer (13.3X=33.3 μM). To monitor the performance of each assay throughout screening and to provide intra-plate normalization reference points, DMSO negative controls and known mitochondrial inhibitor positive controls were included on each Master compound plate.
(§2) Total amounts of superoxide and H2O2 production were determined fluorometrically as H2O2, without distinguishing between them, in the presence of exogenous superoxide dismutase (25 units/mL final), horseradish peroxidase (1 unit/mL final), and Amplex UltraRed (25 μM final) as described (Affourtit, C. et al. (2012) Measurement of proton leak and electron leak in isolated mitochondria. Methods Mol. Biol. 810: 165-82). Just prior to use, a bulk 3.3X solution was made in standard buffer and distributed into a 2 mL deep well 96-well transfer plate.
To assess the effects of a compound on ROS production from glycerol-3-phosphate dehydrogenase (GPDH), Start Solution containing 25 mM glycerol phosphate, 4 μM rotenone, 2.5 μM antimycin A, 1 mM malonate, 2 μM myxothiazol was distributed into standard 96-well transfer plates. A Biomek FX workstation was programmed to dispense solutions into black 96-well assay plates. Solutions were dispensed to all assay plates in the following order: ROS Detection solution described in Example 3, Mitochondria solution described in Example 1 to a final concentration of 0.2 mg/ml, and Compound dilutions described in Example 2. Duplicate assay plates were made and each was initiated by the addition of 3.3X Start solution containing 25 mM glycerol phosphate, 4 μM rotenone, 2.5 μM antimycin A, 1 mM malonate, 2 μM myxothiazol. Plates were incubated in the dark at room temperature for 30-40 minutes before acquiring endpoint fluorescence using a Victor 3V plate reader (Perkin Elmer) equipped with 550/590 nm excitation/emission filters.
The fluorescence values in each well were scaled as the percent change from the intra-plate DMSO controls. […] Following initial scaling, intra-plate normalized values were subjected to Tukey's two-way median polish to remove row and column dependent positional effects (Malo et al., 2006).

Assay [2] concerns the target T2, flavin binding site of complex I (IF) (Rattus norvegicus, UniProt Q5XIH3).
T2 construct: freshly isolated muscle mitochondria were assayed; from tissue; host or cells: rat skeletal muscle mitochondria (Wistar, Harlan Laboratories)
In words: High-throughput screen: ROS production from flavin binding site of complex I (IF). It counts as biochemical. The note with it: percent change in ROS from DMSO controls.
Method: as §1
Master screening plates were prepared using a Biomek FX liquid handling workstation (Beckman) to transfer 1 μL of each compound into individual wells on 96-well storage plates (80 compounds per plate). […] Just prior to use, plates were brought to room temperature and diluted 300-fold with standard buffer (13.3X=33.3 μM). To monitor the performance of each assay throughout screening and to provide intra-plate normalization reference points, DMSO negative controls and known mitochondrial inhibitor positive controls were included on each Master compound plate.
as §2
To assess the effects of a compound on ROS production from the flavin binding site of complex I (IF), Start Solution containing 5 mM glutamate, 5 mM malate and 4 μM rotenone was distributed into standard 96-well transfer plates. A Biomek FX workstation was programmed to dispense solutions into black 96-well assay plates. Solutions were dispensed to all assay plates in the following order: ROS Detection solution described in Example 3, Mitochondria solution described in Example 1 to a final concentration of 0.3 mg/ml, and Compound dilutions described in Example 2. Duplicate assay plates were made and each was initiated by the addition of 3.3X Start solution containing 5 mM glutamate, 5 mM malate and 4 μM rotenone. Plates were incubated in the dark at room temperature for 30-40 minutes before acquiring endpoint fluorescence using a Victor 3V plate reader (Perkin Elmer) equipped with 550/590 nm excitation/emission filters.
The fluorescence values in each well were scaled as the percent change from the intra-plate DMSO controls with the appropriate inhibitor positive controls defined as −100%. Following initial scaling, intra-plate normalized values were subjected to Tukey's two-way median polish to remove row and column dependent positional effects (Malo, N. et al. (2006) Statistical practice in high-throughput screening data analysis. Nat. Biotechnol. 24(2): 167-75).

Assay [3] concerns mitochondrial membrane potential (ΔΨm). In words: Membrane potential (ΔΨm) counterscreen with TMRM. The note with it: malate, nigericin. (Counterscreens check selectivity or assay interference.)
The target of assay [4] is T3, outer ubiquinone binding site of complex III (IIIQO) (Rattus norvegicus, UniProt P00159+P20788).
T3 construct: freshly isolated muscle mitochondria were assayed; from tissue; host or cells: rat skeletal muscle mitochondria (Wistar, Harlan Laboratories)
In words: High-throughput screen: ROS production from outer ubiquinone binding site of complex III (IIIQO). It counts as biochemical.

Assay [5] concerns mitochondrial membrane potential (ΔΨm). In words: Retest ΔΨm assays (different substrates, with and without nigericin). The settings on record: various substrates. The assay is classed as biochemical, rat. The procedure:
The five core ROS assays and single ΔΨm assay were carried out as in the initial high-throughput screen. In addition, several assays were included to help validate the specificity of the compounds for a given site of production. […] The use of different substrates was designed to reveal compounds that disrupt mitochondrial function in a substrate specific manner. […] Most frequently, these changes involved the use of different substrates to supply electrons from an alternative entry point in the chain. If a site of ROS production is being targeted selectively by a compound, then in many cases the supply of electrons should not influence the effectiveness of this compound at suppressing ROS production. […] Candidate compounds that remained site-selective following robotics assisted retesting were subsequently tested for effects on ROS production and ΔΨm with a Varian Cary Eclipse fluorimeter (excitation 550 nm, emission at 590 nm). This experimental format allows kinetic measurements of ROS production and ΔΨm with more accurate temperature control, sample stirring, and background correction. […] Conditions were generally as described for the various microplate assays with the following exceptions: HRP was increased to 5 units/mL, Amplex UltraRed was increased to 50 μM, temperature was always 37° C., samples were continuously stirred, and baseline rates of fluorescence change in the absence of substrate were acquired prior to their addition. Example protocols for cuvette based measurement of site IQ and site IIIQo ROS production are described in Affourtit et al., 2012. […] Biochim. Biophys. Acta. 1777(5): 397-403. An additional advantage of the kinetic cuvette based assays was the ability to perform inline additions to monitor the relative effect of a test compound against multiple conditions in the same cuvette. Therefore, the selectivity of a compound for one site of ROS production can be monitored by adding substrates and select known inhibitors in defined sequences to alternately provide and trap electrons at various sites in the chain. […]

For assay [6], the target named is T4, succinate dehydrogenase/complex II (SDH) (Rattus norvegicus, UniProt P21913+Q641Z9+Q6PCT8+Q920L2).
T4 construct: freshly isolated muscle mitochondria were assayed; from tissue; host or cells: rat skeletal muscle mitochondria (Wistar, Harlan Laboratories)
In words: High-throughput screen: ROS production from succinate dehydrogenase/complex II (SDH). The assay is classed as biochemical. The settings on record: percent change in ROS from DMSO controls.

Assay [7] has as its system ubiquinone binding site of complex I (IQ). In words: High-throughput screen: ROS production from ubiquinone binding site of complex I (IQ), isolated skeletal muscle mitochondria. The settings on record: percent change in ROS from DMSO controls. It counts as biochemical, rat.

Each structure is given as a SMILES string. Entries after “also recorded” stand apart in the source; their conditions may differ. Read-outs that look alike come from different tables or passages of the source.

T4 sequence (Q920L2 35-656): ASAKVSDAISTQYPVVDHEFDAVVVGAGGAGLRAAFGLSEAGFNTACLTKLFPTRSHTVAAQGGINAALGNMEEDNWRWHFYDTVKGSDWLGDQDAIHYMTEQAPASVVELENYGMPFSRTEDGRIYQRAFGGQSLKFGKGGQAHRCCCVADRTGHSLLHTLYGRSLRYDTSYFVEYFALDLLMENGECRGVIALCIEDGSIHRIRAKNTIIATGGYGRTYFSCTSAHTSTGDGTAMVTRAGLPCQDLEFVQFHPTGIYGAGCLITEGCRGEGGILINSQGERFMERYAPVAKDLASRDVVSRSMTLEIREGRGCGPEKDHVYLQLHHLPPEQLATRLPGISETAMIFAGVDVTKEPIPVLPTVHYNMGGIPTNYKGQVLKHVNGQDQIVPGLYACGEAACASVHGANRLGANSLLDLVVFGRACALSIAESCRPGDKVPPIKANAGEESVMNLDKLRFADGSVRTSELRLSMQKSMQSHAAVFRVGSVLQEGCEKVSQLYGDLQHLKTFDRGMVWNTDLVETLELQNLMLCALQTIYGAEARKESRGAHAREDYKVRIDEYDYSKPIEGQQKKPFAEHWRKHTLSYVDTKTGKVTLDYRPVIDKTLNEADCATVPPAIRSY
T4 sequence (P21913 31-282): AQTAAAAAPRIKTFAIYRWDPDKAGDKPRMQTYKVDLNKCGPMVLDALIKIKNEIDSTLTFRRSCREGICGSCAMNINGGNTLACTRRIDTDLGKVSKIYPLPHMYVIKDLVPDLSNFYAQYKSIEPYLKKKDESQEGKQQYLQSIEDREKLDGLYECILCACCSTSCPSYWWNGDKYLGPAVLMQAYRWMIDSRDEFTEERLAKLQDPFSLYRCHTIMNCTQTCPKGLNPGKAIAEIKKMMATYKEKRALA
T4 sequence (Q641Z9 30-169 limits assumed): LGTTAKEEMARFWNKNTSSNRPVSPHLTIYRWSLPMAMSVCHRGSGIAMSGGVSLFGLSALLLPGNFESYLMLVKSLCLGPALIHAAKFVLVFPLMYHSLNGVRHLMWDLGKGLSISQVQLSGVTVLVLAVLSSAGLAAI
T4 sequence (Q6PCT8 57-159): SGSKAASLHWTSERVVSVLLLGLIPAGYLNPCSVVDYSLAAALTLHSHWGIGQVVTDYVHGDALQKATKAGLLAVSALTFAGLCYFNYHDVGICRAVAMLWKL
T2 sequence (Q5XIH3 21-464 limits assumed, one chain of several): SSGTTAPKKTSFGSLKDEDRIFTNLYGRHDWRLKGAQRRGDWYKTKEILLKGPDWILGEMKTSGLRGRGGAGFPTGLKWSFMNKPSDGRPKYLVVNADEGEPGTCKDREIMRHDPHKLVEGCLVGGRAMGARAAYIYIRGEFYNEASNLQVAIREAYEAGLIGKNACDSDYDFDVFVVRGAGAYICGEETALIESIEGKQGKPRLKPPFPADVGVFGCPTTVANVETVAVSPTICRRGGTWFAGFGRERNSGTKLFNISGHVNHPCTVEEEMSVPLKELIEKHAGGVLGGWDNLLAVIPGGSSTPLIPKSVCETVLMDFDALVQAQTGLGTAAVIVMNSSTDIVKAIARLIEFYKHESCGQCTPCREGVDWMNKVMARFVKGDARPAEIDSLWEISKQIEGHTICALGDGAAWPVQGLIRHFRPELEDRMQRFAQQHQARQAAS

As to `COc1ccc(Cl)cc1N(Cc1ccccc1)Cc1ccccc1` [Compound 34], the inhibition in assay [1] (Table 7) came to 4%. For the same compound, the GPDH in assay [1] (Table 8) and in assay [1] (Table 9) was −4.0 in each case. The inhibition at 2.5 µM in assay [2] (Table 7, read-out: IF) is -5.6%; in assay [4] (Table 4, 5 mM succinate, 4 μM rotenone, 2.5 μM antimycin A, compounds 2.5 μM, percent change from DMSO, read-out: % Reduction in ROS production (IIIQO)), 49.4%; in assay [4] (Table 7, percent change in ROS from DMSO controls, read-out: IIIQO), 49.4%; in assay [4] (Table 9, percent change in ROS from DMSO controls, read-out: IIIQo), 49.4%; in assay [6] (Table 7), -3.9%. For the same compound, the IF in assay [2] (Table 8) and in assay [2] (Table 9) was 5.6 each time. Also, the ΔΨm in assay [3] (Table 8, glutamate) was 3.4; in assay [3] (Table 9, glutamate), 3.4. The compound also showed an IIIQO in assay [4] (Table 8, percent change in ROS from DMSO controls) of −49.4. In addition, the “effect on ΔΨm” value in assay [5] was “a consistent increase in ΔΨm was observed independent of both substrate and ΔpH at 8 μM; also recorded: increases ΔΨm at 8 μM but collapses ΔΨm above this concentration”. Also, the SDH in assay [6] (Table 8) and in assay [6] (Table 9) was 3.9 throughout. Also, the IQ in assay [7] (Table 7), in assay [7] (Table 8) and in assay [7] (Table 9) was 4.0 each time.
